From patent publication US20110184027A1, “TISSUE SELECTIVE STEAROYL-COA DESATURASE 1 INHIBITORS AND CELL BASED SCREENING ASSAY FOR THEIR IDENTIFICATION” (GLENMARK PHARMACEUTICALS S.A., priority 2008, published 2011)

Experiments:
SCD-1 [1] = target: T1, SCD-1 (Homo sapiens, UniProt O00767); assay: Whole cell based SCD-1 assay in human liver cell line HepG2 (tritiated stearoyl CoA, labelled water release); set-up: includes cells which express the SCD-1 gene product endogenously; endogenous in cells; host or cells: A431 (ATCC CRL 1555), not induced; conditions: EC35
T1 sequence (O00767 1-359): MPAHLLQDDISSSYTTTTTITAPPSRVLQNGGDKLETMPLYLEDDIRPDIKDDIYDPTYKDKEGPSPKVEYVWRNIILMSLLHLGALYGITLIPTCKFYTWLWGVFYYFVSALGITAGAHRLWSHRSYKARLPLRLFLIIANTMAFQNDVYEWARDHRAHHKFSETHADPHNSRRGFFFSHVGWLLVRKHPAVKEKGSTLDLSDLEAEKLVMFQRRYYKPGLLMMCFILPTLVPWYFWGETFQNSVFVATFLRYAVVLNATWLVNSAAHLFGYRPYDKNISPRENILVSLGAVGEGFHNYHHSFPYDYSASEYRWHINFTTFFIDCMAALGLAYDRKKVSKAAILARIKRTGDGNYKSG
Protocol: (§1) An assay was developed using whole cells to screen for agents that modulate SCD-1 activity. Three cell lines namely human liver cell line (hepatocellular carcinoma HepG2 ATCC HB 8065), human skin cell line (epidermal carcinoma A431 ATCC CRL 1555) and human corneal epithelial progenitor (HCEP) cells (CELLNTEC advanced cell systems) were used. HepG2 cells were seeded in a 24 well plate in complete MEM medium (Hyclone). A431 cells were seeded in a 12 well plate in complete DMEM medium (Sigma). HCEP cells were seeded in a 96 well plate in defined corneal epithelial medium CnT 20 (CELLNTEC advanced cell systems). HepG2 cells were induced with LXR agonist T0901317 (Cayman chemicals) in medium containing high glucose and fatty acid free BSA for 3 days with media change every day (Wang et al, (2004) Journal of Lipid Research, 45, 972-980). A431 cells were not induced. (3). The cells were preincubated in plain medium with the known SCD-1 modulators namely CLA (conjugated linoleic acid) (Sigma) and TSA (9 thiastearic acid) (Cayman chemicals) for 15-30 minutes at 37 deg C. and further challenged with 0.25 to 7.5 μCi tritiated Stearoyl CoA (American Radiolabelled chemicals). The cells were incubated for last 6 hours in 5% CO2 incubator at 37 deg C. or in specific embodiments for 4 hours to 30 hours. At the end of the incubation, the incubation medium was collected into tubes. Dowex AG 1-X8 resin (Biorad laboratories) pre-equilibrated with distilled ethanol:water was added to the tubes to separate the unconsumed substrate from the labelled water. The tubes were then vortexed for 5 minutes and centrifuged at 14000 rpm for 20 minutes at room temperature. The supernatant from the tubes was mixed with the scintillation fluid and radioactivity counted in the Packard topcount scintillation counter (Perkin Elmer). Counts obtained were normalised per million cells. Inhibition of enzyme activity was calculated as the percent of maximum reaction control that contained no test compound.
(§2) The whole cell based assay was adapted to screen for agents that differentially modulate SCD-1 activity present in different tissues. Three cell lines namely human liver cell line (hepatocellular carcinoma HepG2), human skin cell line (epidermal carcinoma A431) and human corneal epithelial progenitor (HCEP) cells were used. HepG2 cells were seeded in a 24 well plate in complete MEM medium. A431 cells were seeded in a 12 well plate in complete DMEM medium. HCEP cells were seeded in a 96 well plate in defined corneal epithelial medium CnT 20. HepG2 cells were induced with LXR agonist T0901317 in medium containing 4.5 gm/litre glucose and 0.1% fatty acid free BSA for 3 days with media change every day (Wang et al, (2004) Journal of Lipid Research, 45, 972-980). A431 cells and HCEP cells were not induced. (3). The cells were preincubated in plain medium 0.1 nM to 10 μM concentrations potential SCD-1 modulator compounds for 15-30 minutes at 37 deg C. and further challenged with 0.25 to 7.5 μCi tritiated Stearoyl CoA. The cells were incubated for last 6 hours in 5% CO2 incubator at 37 deg C. or in specific embodiments for 4 hours to 30 hours. At the end of the incubation, the incubation medium was collected into tubes. Dowex AG 1-X8 resin pre-equilibrated with distilled ethanol:water was added to the tubes to separate the unconsumed substrate from the labelled water. The tubes were then vortexed for 5 minutes and centrifuged at 14000 rpm for 20 minutes at room temperature. The supernatant from the tubes was mixed with the scintillation fluid and radioactivity counted in the Packard topcount scintillation counter. Counts obtained were normalised per million cells. Inhibition of enzyme activity was calculated as the percent of maximum reaction control that contained no test compound. For active compounds, EC35 was calculated from dose response curve by non linear regression analysis using GraphPadPRISM software. The ratio of EC35 for skin cells to EC35 for liver cells was calculated. […]

SCD-1 [2] = target: T1, SCD-1; assay: Whole cell based SCD-1 assay in human skin cell line A431 (tritiated stearoyl CoA, labelled water release); set-up: includes cells which express the SCD-1 gene product endogenously; endogenous in cells; host or cells: A431 (ATCC CRL 1555), not induced; conditions: for IC35: EC35; for Fold Skin:liver: ratio of EC35 skin cells (A431) to EC35 liver cells (HepG2)
Protocol: as §1, §2

SCD-1 [3] = target: T1, SCD-1; assay: Whole cell based SCD-1 assay in human liver cell line HepG2 (tritiated stearoyl CoA, labelled water release); set-up: includes cells which express the SCD-1 gene product endogenously; endogenous in cells; host or cells: A431 (ATCC CRL 1555), not induced; conditions: for Fold Liver:skin: ratio of EC35 liver cells (HepG2) to EC35 skin cells (A431)
SCD-1 [4] = target: T1, SCD-1; assay: Whole cell based SCD-1 assay in human skin cell line A431 (tritiated stearoyl CoA, labelled water release); set-up: includes cells which express the SCD-1 gene product endogenously; endogenous in cells; host or cells: A431 (ATCC CRL 1555), not induced
SCD-1 [5] = target: T1, SCD-1; assay: Whole cell based SCD-1 assay in human corneal epithelial progenitor (HCEP) cells; set-up: includes cells which express the SCD-1 gene product endogenously; endogenous in cells; conditions: for IC35: HCEP human corneal epithelial cells, EC35, read-out: hCornea EC35; for Fold Liver:Cornea: ratio of EC35 liver cells (HepG2) to EC35 corneal cells (HCEP)
Protocol: as §1
The whole cell based assay was adapted to screen for agents that differentially modulate SCD-1 activity present in different tissues. Three cell lines namely human liver cell line (hepatocellular carcinoma HepG2), human skin cell line (epidermal carcinoma A431) and human corneal epithelial progenitor (HCEP) cells were used. HepG2 cells were seeded in a 24 well plate in complete MEM medium. A431 cells were seeded in a 12 well plate in complete DMEM medium. HCEP cells were seeded in a 96 well plate in defined corneal epithelial medium CnT 20. HepG2 cells were induced with LXR agonist T0901317 in medium containing 4.5 gm/litre glucose and 0.1% fatty acid free BSA for 3 days with media change every day (Wang et al, (2004) Journal of Lipid Research, 45, 972-980). A431 cells and HCEP cells were not induced. (3). […] The cells were incubated for last 6 hours in 5% CO2 incubator at 37 deg C. or in specific embodiments for 4 hours to 30 hours. At the end of the incubation, the incubation medium was collected into tubes. […] The supernatant from the tubes was mixed with the scintillation fluid and radioactivity counted in the Packard topcount scintillation counter. […] Inhibition of enzyme activity was calculated as the percent of maximum reaction control that contained no test compound. For active compounds, EC35 was calculated from dose response curve by non linear regression analysis using GraphPadPRISM software. The ratio of EC35 for skin cells to EC35 for liver cells was calculated.

[6] = HepG2 liver cells, LXR agonist induced, read-out: Inhibition of SCD-1 activity in whole cell based assay (EC35), HepG2
[7] = HepG2 human liver cells, read-out: hLiver EC35
[8] = A-431, A431 human skin cells, read-out: hSkin EC35

IC35 (SCD-1 [1]; [7]) [µM]	IC35 (SCD-1 [2]; [8]) [µM]	Fold Skin:liver (SCD-1 [2])	Molecule	further results
–	–	–	CCCCCCCCCSCCCCCCCC(=O)O [TSA, 9 thiastearic acid, reference compound]	IC35 (SCD-1 [1]; [6]): ~100 µM; IC35 (SCD-1 [2]; A-431, A431 skin cells, not induced, read-out: Inhibition of SCD-1 activity in whole cell based assay (EC35), A431): ~100 µM; inhibition at 100 µM (SCD-1 [3]; HepG2, HepG2 liver cells, at 100 μM, read-out: Percentage inhibition of SCD-1, HepG2): 58%; inhibition at 100 µM (SCD-1 [4]; A-431, A431 skin cells, at 100 μM, read-out: Percentage inhibition of SCD-1, A431): 52%
0.266	0.18	–	Cc1nc(-c2ccc(-c3ccc(O)cc3)nc2)sc1C(=O)NCCCc1ccccc1 [compound 1]	Fold Liver:skin (SCD-1 [3]): 1.47
0.363	–	–	Cc1nc(C#Cc2ccc(O)cc2)sc1C(=O)NCc1ccccc1 [compound 1]	IC35 (SCD-1 [5]): 0.218 µM; Fold Liver:Cornea (SCD-1 [5]): 1.66
2.3	2.14	0.93	Cc1nc(C#Cc2ccc(O)cc2)sc1C(=O)NCc1cccnc1 [compound 1]	–
3.44	6.9	2.00	Cc1nc(C#Cc2cccc(O)c2)sc1C(=O)NCc1ccccc1 [compound 1]	–
0.438	0.168	–	Cc1nc(-c2ccc(-c3ccc(O)cc3)nc2)sc1C(=O)NCCc1ccccc1 [compound 2]	Fold Liver:skin (SCD-1 [3]): 2.60
0.0395	0.0378	0.95	Cc1nc(-n2cnn(Cc3ccc(F)cc3)c2=O)sc1C(=O)NCc1ccccc1 [compound 2]	–
0.48	–	–	Cc1nc(C#Cc2ccc(O)cc2)sc1C(=O)NCCc1ccc(F)cc1 [compound 2]	IC35 (SCD-1 [5]): 0.0532 µM; Fold Liver:Cornea (SCD-1 [5]): 9.02
0.49	0.982	2.00	Cc1nc(C#Cc2ccc(O)cc2)sc1C(=O)NCCc1ccccc1 [compound 2]	–
0.0294	0.0338	1.15	Cc1nc(-n2cnn(Cc3cccc(F)c3F)c2=O)sc1C(=O)NCc1ccccc1 [compound 3]	–
0.698	> 10	>15	Cc1nc(C#Cc2ccc(O)cc2)sc1C(=O)NCc1ccc(Cl)cc1 [compound 3]	–
–	–	–	conjugated linoleic acid [CLA, reference compound]	Percentage inhibition of SCD-1, HCEP (SCD-1 [5]; HCEP corneal cells, at 300 μM): ~80% at 300 μM; IC35 (SCD-1 [1]; [6]): 22.66 µM; IC35 (SCD-1 [2]; A431 skin cells, not induced, read-out: Inhibition of SCD-1 activity in whole cell based assay (EC35), A431): 16.35 µM; Percentage inhibition of SCD-1, HepG2 (SCD-1 [3]; HepG2 cells, at 300 μM): (~80.01% at 300 μM); Percentage inhibition of SCD-1, A431 (SCD-1 [4]; A431 cells, at 300 μM): (~91% at 300 μM)
